Measured values: ChEMBL document CHEMBL1201862, “PubChem BioAssay data set” (2004)
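Where inhibition never reached the appropriate level, the endpoint shown equals the highest concentration tested. Otherwise, values were interpolated linearly from a five-concentration, 48-hour dose response in 96-well plates. The concentration for 50% growth inhibition is given as GI50.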 Calls of active or inactive are those of the source. No stated cut-off is given here; in the data, active = GI50 up to about 1.1 µM and inactive = higher.

What was measured:
Assay in all cases: NCI tumour cell line growth inhibition, 48 h
M14 = system: M14
SNB-19 = system: SNB-19
SF-539 = system: SF-539
RXF 393 = system: RXF 393
HT-29 = system: HT-29
UACC-62 = system: UACC-62
Malme-3M = system: Malme-3M
OVCAR-8 = system: OVCAR-8
HL-60 = system: HL-60
COLO 205 = system: COLO 205
OVCAR-3 = system: OVCAR-3
DU-145 = system: DU-145
MOLT-4 = system: MOLT-4
SK-MEL-28 = system: SK-MEL-28
MDA-MB-231 = system: MDA-MB-231
SW-620 = system: SW-620
HOP-62 = system: HOP-62
HCT-15 = system: HCT-15
MDA-MB-435 = system: MDA-MB-435
RPMI-8226 = system: RPMI-8226

O=[N+]([O-])/C(C(Cl)=C(Cl)Cl)=C(/Sc1ccccc1)N1CCCCC1
GI50 (M14): > 69.2 µM (inactive)
GI50 (SNB-19): > 58.7 µM (inactive)
GI50 (SF-539): > 100 µM (inactive)
GI50 (RXF 393): 5.08 µM (inactive)
GI50 (HT-29): > 100 µM (inactive)
GI50 (UACC-62): 13.9 µM (inactive)
GI50 (Malme-3M): 19.8 µM (inactive)
GI50 (OVCAR-8): > 58.2 µM (inactive)
GI50 (HL-60): 2.24 µM (inactive)
GI50 (COLO 205): > 100 µM (inactive)
GI50 (OVCAR-3): > 63.7 µM (inactive)
GI50 (DU-145): > 53.2 µM (inactive)
GI50 (MOLT-4): 3.52 µM (inactive)
GI50 (SK-MEL-28): > 100 µM (inactive)
GI50 (MDA-MB-231): > 61.5 µM (inactive)
GI50 (SW-620): > 100 µM (inactive)
GI50 (HOP-62): > 59.3 µM (inactive)
GI50 (HCT-15): > 100 µM
GI50 (MDA-MB-435): > 36.7 µM (inactive)
GI50 (RPMI-8226): > 100 µM (inactive)

CC(=O)c1sc2c(c1OC(=O)c1ccc(Cl)cc1)c(=O)n(-c1ccccc1)c(=S)n2-c1ccccc1
GI50 (M14): 1.18 µM (inactive)
GI50 (SNB-19): 3.56 µM (inactive)
GI50 (SF-539): 1.87 µM (inactive)
GI50 (RXF 393): 2.22 µM (inactive)
GI50 (HT-29): 0.946 µM (active)
GI50 (UACC-62): 15.7 µM (inactive)
GI50 (Malme-3M): 1.94 µM (inactive)
GI50 (OVCAR-8): 3.48 µM (inactive)
GI50 (HL-60): 9.23 µM (inactive)
GI50 (COLO 205): 3.53 µM (inactive)
GI50 (OVCAR-3): 14.2 µM (inactive)
GI50 (DU-145): 25.9 µM (inactive)
GI50 (MOLT-4): 1.56 µM (inactive)
GI50 (SK-MEL-28): 2.79 µM (inactive)
GI50 (MDA-MB-231): 3.91 µM (inactive)
GI50 (SW-620): 12.7 µM (inactive)
GI50 (HOP-62): 3.85 µM (inactive)
GI50 (HCT-15): 9.18 µM
GI50 (MDA-MB-435): 4.14 µM (inactive)
GI50 (RPMI-8226): 1.21 µM (inactive)

CC1=CC[C@@]2(C)[C@@H]([C@@H]1C)[C@H]1CC[C@@H]3[C@@]4(C)CC[C@H](O)C(C)(C)[C@@H]4CC[C@@]3(C)[C@]1(C)C[C@@H]2O
GI50 (M14): 6.52 µM (inactive)
GI50 (SNB-19): 37.8 µM (inactive)
GI50 (SF-539): 27 µM (inactive)
GI50 (RXF 393): 10.4 µM (inactive)
GI50 (HT-29): 11.6 µM (inactive)
GI50 (UACC-62): > 45.8 µM (inactive)
GI50 (Malme-3M): 30.4 µM (inactive)
GI50 (OVCAR-8): 14.1 µM (inactive)
GI50 (HL-60): 50.1 µM (inactive)
GI50 (COLO 205): 15 µM (inactive)
GI50 (OVCAR-3): 18.9 µM (inactive)
GI50 (DU-145): 8 µM (inactive)
GI50 (MOLT-4): 13.9 µM (inactive)
GI50 (SK-MEL-28): 6.44 µM (inactive)
GI50 (MDA-MB-231): 8.2 µM (inactive)
GI50 (SW-620): 33.6 µM (inactive)
GI50 (HOP-62): 13.5 µM (inactive)
GI50 (HCT-15): 26.1 µM
GI50 (MDA-MB-435): 20.2 µM (inactive)
GI50 (RPMI-8226): 9.23 µM (inactive)

Cc1cc(C)c(S(=O)(=O)N(CCCCCCN)OCCCON(CCCCCCN)S(=O)(=O)c2c(C)cc(C)cc2C)c(C)c1
GI50 (M14): 1.66 µM (inactive)
GI50 (SNB-19): 1.62 µM (inactive)
GI50 (SF-539): 2.28 µM (inactive)
GI50 (RXF 393): 1.7 µM (inactive)
GI50 (HT-29): 1.66 µM (inactive)
GI50 (UACC-62): 1.74 µM (inactive)
GI50 (Malme-3M): 1.45 µM (inactive)
GI50 (OVCAR-8): 1.79 µM (inactive)
GI50 (HL-60): 2.15 µM (inactive)
GI50 (COLO 205): 1.89 µM (inactive)
GI50 (OVCAR-3): 1.76 µM (inactive)
GI50 (DU-145): 1.37 µM (inactive)
GI50 (MOLT-4): 2.44 µM (inactive)
GI50 (SK-MEL-28): 1.83 µM (inactive)
GI50 (MDA-MB-231): 1.8 µM (inactive)
GI50 (SW-620): 2.15 µM (inactive)
GI50 (HOP-62): 1.8 µM (inactive)
GI50 (HCT-15): 1.8 µM
GI50 (MDA-MB-435): 2.13 µM (inactive)
GI50 (RPMI-8226): 2.43 µM (inactive)

COc1cc(NS(C)(=O)=O)ccc1Nc1c2ccccc2nc2c1[nH]c1ccc(NC3OC(CO)C(O)C(O)C3O)cc12 (stereo not given)
GI50 (M14): 0.0399 µM (active)
GI50 (SNB-19): 0.0242 µM (active)
GI50 (SF-539): < 0.01 µM (active)
GI50 (RXF 393): 0.144 µM (active)
GI50 (HT-29): 0.159 µM (active)
GI50 (UACC-62): 0.0213 µM (active)
GI50 (Malme-3M): 0.0468 µM (active)
GI50 (OVCAR-8): 0.0504 µM (active)
GI50 (HL-60): 0.0153 µM (active)
GI50 (COLO 205): 0.26 µM (active)
GI50 (OVCAR-3): 0.538 µM (active)
GI50 (DU-145): 0.0281 µM (active)
GI50 (MOLT-4): < 0.01 µM (active)
GI50 (SK-MEL-28): 0.122 µM (active)
GI50 (MDA-MB-231): 0.546 µM (active)
GI50 (SW-620): < 0.0348 µM (active)
GI50 (HOP-62): < 0.0163 µM (active)
GI50 (HCT-15): 0.152 µM
GI50 (MDA-MB-435): 0.798 µM (active)
GI50 (RPMI-8226): 0.0973 µM (active)
